The text below walks through data of patent publication US8222235B2, “2-methylene-19-nor-(20R)-1α-hydroxy-bishomopregnacalciferol” (Wisconsin Alumni Research Foundation, priority 2004, dated 2012).

The conditions of data set [1]: as set forth in the '352, '861 and '622 patents; cited from earlier work.
For data set [2] the following is noted: as set forth in the '352, '861 and '622 patents; cited from earlier work. This is another data set of the same source.
The target of the next data set is T1, vitamin D receptors (Homo sapiens, UniProt P11473).
T1 sequence (P11473 1-427): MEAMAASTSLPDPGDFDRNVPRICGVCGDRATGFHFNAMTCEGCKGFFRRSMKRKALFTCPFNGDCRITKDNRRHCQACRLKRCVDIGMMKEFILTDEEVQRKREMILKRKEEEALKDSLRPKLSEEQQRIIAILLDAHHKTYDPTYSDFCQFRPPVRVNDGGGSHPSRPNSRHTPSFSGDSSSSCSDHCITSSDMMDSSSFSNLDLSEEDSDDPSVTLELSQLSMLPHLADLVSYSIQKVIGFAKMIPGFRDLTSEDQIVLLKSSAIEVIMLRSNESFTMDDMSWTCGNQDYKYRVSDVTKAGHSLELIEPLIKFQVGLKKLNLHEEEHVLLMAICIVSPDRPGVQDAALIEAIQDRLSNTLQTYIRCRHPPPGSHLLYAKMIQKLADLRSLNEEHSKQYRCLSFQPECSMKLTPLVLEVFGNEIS
The note with it: as set forth in the '352, '861 and '622 patents; cited from earlier work.

The subject of data set [3] is Human promyelocytic leukemia (HL60) cells. Description: HL-60 differentiation (nitro blue tetrazolium reduction). Type of data set: cell-based. Conditions: HL-60 cells in culture; FIG. 2. How it is done:
FIG. 2 is a graph comparing the percent HL-60 cell differentiation as a function of the concentration of (20R)-2 MbisP with that of 1,25(OH)2D3.
The study drugs were dissolved in ethanol and the concentrations determined using UV spectrophotometry. Serial dilutions were prepared so that a range of drug concentrations could be tested without changing the final concentration of ethanol (≦0.2%) present in the cell cultures.
Human promyelocytic leukemia (HL60) cells were grown in RPMI-1640 medium containing 10% fetal bovine serum. The cells were incubated at 37° C. in the presence of 5% CO2.
HL60 cells were plated at 1.2×10^5 cells/ml. Eighteen hours after plating, cells in duplicate were treated with drug. Four days later, the cells were harvested and a nitro blue tetrazolium reduction assay was performed (Collins et al., 1979; J. Exp. Med. 149:969-974). The percentage of differentiated cells was determined by counting a total of 200 cells and recording the number that contained intracellular black-blue formazan deposits. Verification of differentiation to monocytic cells was determined by measuring phagocytic activity (data not shown).

A short description of data set [4]: Hypercalcemia: serum calcium in adult rats. Type of data set: in vivo, Sprague-Dawley rats. The note with it: ip, doses as high as 45 nmol/day, FIG. 6. How it is done:
FIG. 6 is a bar graph comparing the serum calcium levels in adult rats after administration of (20R)-2 MbisP and 1,25(OH)2D3.
(§1) Adult, female Sprague-Dawley rats were obtained from Harlan (Madison, Wis.).
(§2) Upon receipt, the animals were identified by individual tail marks. Animals were housed in suspended, stainless steel, wire-bottom cages. Each cage contained one animal. The animal rooms were maintained at a temperature of 68 to 72° F. and a relative humidity of 25 to 75%. The holding rooms were set to provide 12 hours of light per day. Water and a purified rodent diet (Suda et al., Purified Rodent Diet-Diet 11) containing […] 0.3% phosphorus and fat soluble vitamins A, D, E and K were provided ad libitum.
(§3) Animals were randomly assigned to treatment groups (5 animals/group). All doses were administered intraperitoneally in 100 microliters of propylene glycol. Four to seven consecutive doses were given approximately 24 hours apart. Dosing was initiated after the animals had been allowed to acclimate for at least one week. […]
Twenty-four hours after the final dose, approximately 1 ml of blood was collected from the tail artery of each experimental animal. […] The level of calcium was determined by diluting the serum into 0.1% lanthum chloride and measuring the absorbance on an atomic absorption spectrophotometer (Perkin Elmer Model 3110, Shelton, Conn.).

Data set [5] deals with 24-hydroxylase (24Ohase) gene promoter. As to the kind of experiment: In vitro transcription assay (luciferase reporter in ROS 17/2.8 cells). Type of data set: cell-based. The note with it: FIG. 3. How it is done: FIG. 3 is a graph comparing the in vitro transcription activity of (20R)-2MbisP with that of 1,25(OH)2D3.
Transcription activity was measured in ROS 17/2.8 (bone) cells that were stably transfected with a 24-hydroxylase (24Ohase) gene promoter upstream of a luciferase reporter gene (Arbour et al., 1998). Cells were given a range of doses. Sixteen hours after dosing the cells were harvested and luciferase activities were measured using a luminometer. RLU=relative luciferase units.

Data set [6] deals with T2, full-length recombinant rat vitamin D receptor (Rattus norvegicus, UniProt P13053).
T2 construct: Full-length recombinant rat receptor was expressed in E. coli BL21(DE3) Codon Plus RIL cells; histidine tag (C); made in house; host or cells: E. coli BL21(DE3) Codon Plus RIL
T2 sequence (P13053 1-423): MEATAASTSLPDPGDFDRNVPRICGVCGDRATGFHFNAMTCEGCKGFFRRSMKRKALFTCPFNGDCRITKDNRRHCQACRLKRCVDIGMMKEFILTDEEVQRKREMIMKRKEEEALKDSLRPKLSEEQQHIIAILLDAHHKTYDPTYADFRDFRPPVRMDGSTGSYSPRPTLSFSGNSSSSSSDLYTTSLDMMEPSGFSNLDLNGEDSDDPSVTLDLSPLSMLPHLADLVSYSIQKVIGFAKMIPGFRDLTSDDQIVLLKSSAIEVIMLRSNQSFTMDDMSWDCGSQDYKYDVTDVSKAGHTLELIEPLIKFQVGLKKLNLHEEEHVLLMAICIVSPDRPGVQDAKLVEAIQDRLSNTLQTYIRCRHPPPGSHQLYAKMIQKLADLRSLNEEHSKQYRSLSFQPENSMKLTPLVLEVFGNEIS
Description: Vitamin D receptor competitive binding with [3H]-1,25-(OH)2-D3. The note with it: competition with [3H]-1,25-(OH)2-D3; FIG. 1. An excerpt:
FIG. 1 is a graph comparing the relative activity of (20R)-2 MbisP and 1,25(OH)2D3 to compete for binding with [^3H]-1,25-(OH)2-D3 to the full-length recombinant rat vitamin D receptor.
Full-length recombinant rat receptor was expressed in E. coli BL21(DE3) Codon Plus RIL cells and purified to homogeneity using two different column chromatography systems. The first system was a nickel affinity resin that utilizes the C-terminal histidine tag on this protein. The protein that was eluted from this resin was further purified using ion exchange chromatography (S-Sepharose Fast Flow). Aliquots of the purified protein were quick frozen in liquid nitrogen and stored at −80° C. until use. For use in binding assays, the protein was diluted in TEDK50 (50 mM Tris, 1.5 mM EDTA, pH 7.4, 5 mM DTT, 150 mM KCl) with 0.1% Chaps detergent. […]
Unlabeled ligands were dissolved in ethanol and the concentrations determined using UV spectrophotometry (1,25(OH)2D3: molar extinction coefficient=18,200 and λmax=265 nm; Analogs: molar extinction coefficient=42,000 and λmax=252 nm). […]
Radiolabeled and unlabeled ligands were added to 100 mcl of the diluted protein at a final ethanol concentration of ≦10%, mixed and incubated overnight on ice to reach binding equilibrium. […] Total binding was determined from the tubes containing only radiolabeled ligand.

Data set [7] in a line: Bone calcium mobilization (serum calcium on low calcium diet). The note with it: rats, ip, four consecutive doses, even very high concentrations; FIG. 4. Type of data set: in vivo, Sprague-Dawley rats. The source says:
FIG. 4 is a bar graph comparing the bone calcium mobilization activity of (20R)-2 MbisP with that of 1,25(OH)2D3.
(§4) Male, weanling Sprague-Dawley rats were placed on Diet 11 (0.47% Ca) diet +AEK for one week followed by Diet 11 (0.02% Ca) +AEK for 3 weeks. The rats were then switched to a diet containing 0.47% Ca for one week followed by two weeks on a diet containing 0.02% Ca. Dose administration began during the last week on 0.02% calcium diet. Four consecutive ip doses were given approximately 24 hours apart. Twenty-four hours after the last dose, blood was collected from the severed neck and the concentration of serum calcium determined as a measure of bone calcium mobilization. The first 10 cm of the intestine was also collected for intestinal calcium transport analysis using the everted gut sac method.

Data set [8] can be described thus: Intestinal calcium transport (everted gut sac method). Type of data set: in vivo, Sprague-Dawley rats. The note with it: rats, ip, four consecutive doses, even very high concentrations; FIG. 5.
Source text: FIG. 5 is a bar graph comparing the intestinal calcium transport activity of (20R)-2 MbisP with that of 1,25(OH)2D3.
as §4

Data set [9] concerns parathyroid hormone (PTH). As to the kind of experiment: PTH suppression in adult rats. It is filed as in vivo, Sprague-Dawley rats. The note with it: ip, 7 consecutive days, FIG. 7. The procedure: FIG. 7 is a bar graph comparing the percent parathyroid hormone (PTH) suppression in adult rats of (20R)-2 MbisP with 1,25(OH)2D3.
as §1, §2, §3
Twenty-four hours after the final dose, blood was collected from the tail artery and the concentration of bioactive serum PTH was measured using the rat BioActive Intact PTH ELISA Kit from Immutopics, Inc. (San Clemente, Calif.).

As to “1α-hydroxy-2-methylene-19-nor-bishomopregnacalciferol”, the cell differentiation activity entry in data set [1] was “relatively high”. Also, in data set [2], the “calcemic activity as compared to 1α,25-dihydroxyvitamin D3” value is listed as “little if any”. Moreover, the “binding activity to vitamin D receptors” value at vitamin D receptors is “relatively high”.
As to `C=C1[C@H](O)CC(=C/C=C2\CCC[C@]3(C)[C@@H](CC)CC[C@@H]23)C[C@H]1O` [1α-Hydroxy-2-methylene-19-nor-pregnacalciferol], the cell differentiation activity entry in data set [1] was “relatively high”. Moreover, in data set [2], the “calcemic activity as compared to 1α,25-dihydroxyvitamin D3” value is “little if any”. At vitamin D receptors, the “binding activity to vitamin D receptors” value is “relatively high”.
As for “1α-hydroxy-2-methylene-19-nor-(20S)-homopregnacalciferol”, the cell differentiation activity entry in data set [1] is on record as “relatively high”. The “calcemic activity as compared to 1α,25-dihydroxyvitamin D3” value in data set [2] was “little if any”. The “binding activity to vitamin D receptors” value on vitamin D receptors is reported as “relatively high”.
As to `C=C1[C@H](O)CC(=C/C=C2\CCC[C@]3(C)C([C@H](C)CC)CC[C@@H]23)C[C@H]1O` (stereo in doubt) [2-Methylene-19-nor-(20R)-1α-hydroxy-bishomopregnacalciferol], the “times less active than 1,25-(OH)2D3 in causing the differentiation of HL-60 cells” value in data set [3] is “about 5 times”. Besides, in data set [4], the “hypercalcemia (serum calcium)” value is recorded as “failed to cause hypercalcemia”. Further, the “times less active than 1,25-(OH)2D3 in turning on transcription of a reporter gene coupled to the CYP-24 promoter” value in data set [5] is “about 5 times”. Also, the “binding to the recombinant vitamin D receptor relative to 1,25-(OH)2D3” value in data set [6] is recorded as “approximately equally effective as 1,25-(OH)2D3”. For the same compound, in [7], the bone calcium mobilization result is reported as “does not support”. The intestinal calcium transport result in [8] is given as “does not support”. Moreover, the “suppression of parathyroid hormone (PTH) in the plasma” value in data set [9] is listed as “considerable activity”.
